Assay results: paper PMC10344917, “Affinity and cooperativity modulate ternary complex formation to drive targeted protein degradation” (Nature Communications, 2023)

Assays:
[1] = target: T1, SMARCA2 (Homo sapiens, UniProt P51531); assay: SMARCA2 degradation, MSD assay, dose response; format: cell-based; parameters: key to AUC (area under the dose-response curve): sum of trapezoids of POC vs dose points, h = 1; conditions: A375 cells; for Dmax: A-375, SMARCA2 degraded; for Dmax / DC50: MSD assay, 2 h timepoint; for AUC (area under the dose-response curve): SMARCA2 MSD assay, 2 h; for DC50: SMARCA2 degradation
T1 construct: endogenous in cells; host or cells: A375
Procedure: A375 cells were treated with SMARCA2 or BRD4 degraders for 2 h (4 h for BRD4) and generated lysates. SMARCA2 or BRD4 protein was measured with a variation of a sandwich ELISA that was assembled from commercially available antibodies as well as reagents and instrumentation procured from Meso Scale Discovery (MSD). Degradation parameter, DC50, is not suitable for PROTACs that induce partial/incomplete DR curves at a fixed time point; maximum drop in target protein level (Dmax) >>0. Conversely, the area under the curve (AUC) can be calculated as a degradation activity parameter for any DR curve, and it encompasses both the degradation potency (i.e., DC50) and efficacy (i.e., Dmax) of PROTACs.
A 1:3 compound dose-response titration was diluted in growth media (1:20), added to appropriate wells of a cell culture plate (1:10) and then assay plates were incubated at 37 °C, 5% CO2.
Plates were washed with 300 µL per well MSD wash buffer (MSD R61TX-1) between each step. Following the last incubation, plates were washed with MSD wash buffer then 150 µL of MSD read buffer (MSD R92TC-2) was added to each well. Plates were immediately read on a MSD plate reader (MSD Sector Imager 6000).
MSD electrochemiluminescence signals were subtracted by the average background signal from wells with lysis buffer alone. Normalized MSD values (POC) for individual compound treated wells were acquired by dividing background-subtracted assay signal by signal from vehicle control wells (cells + 0.1% DMSO) and multiplying by 100. This POC data was graphed using a nonlinear regression curve fit xy analysis and a log(inhibitor) vs response —variable slope (four parameter) model for dose response curves (Graphpad Prism 9, San Diego, CA, USA). To calculate area under the curve, all points on the curve were connected and vertical lines were drawn from each point down to y = 0, generating a series of trapezoids. The area of each trapezoid was determined using the equation A = (1/2)(h)(b1 + b2), where h = 1 (distance between points), b1 = POC of the first point and b2 = POC of the second point. The sum of all trapezoids provides an approximate area under the curve (AUC). For half-life (t1/2) determination in time course studies, a one-phase decay model was used for curve fitting and the time at which the curve crossed 50 POC was determined through interpolation (Graphpad Prism 9, San Diego, CA, USA).

[2] = target: T1, SMARCA2; assay: SMARCA2 degradation time course in A375 cells (MSD); format: cell-based; conditions: single concentration at or near maximal activity
Excerpt: This characteristic has been described as cooperativity (α > 1) and likely results from favorable PPIs present in the ternary complex. […] To measure the rate of protein degradation, we treated A375 cells with a single concentration of each PROTAC and measured the decrease in target abundance over time as shown in Figs. 4b and5b.
MSD electrochemiluminescence signals were subtracted by the average background signal from wells with lysis buffer alone. Normalized MSD values (POC) for individual compound treated wells were acquired by dividing background-subtracted assay signal by signal from vehicle control wells (cells + 0.1% DMSO) and multiplying by 100. This POC data was graphed using a nonlinear regression curve fit xy analysis and a log(inhibitor) vs response —variable slope (four parameter) model for dose response curves (Graphpad Prism 9, San Diego, CA, USA). To calculate area under the curve, all points on the curve were connected and vertical lines were drawn from each point down to y = 0, generating a series of trapezoids. The area of each trapezoid was determined using the equation A = (1/2)(h)(b1 + b2), where h = 1 (distance between points), b1 = POC of the first point and b2 = POC of the second point. The sum of all trapezoids provides an approximate area under the curve (AUC). For half-life (t1/2) determination in time course studies, a one-phase decay model was used for curve fitting and the time at which the curve crossed 50 POC was determined through interpolation (Graphpad Prism 9, San Diego, CA, USA). Additionally initial rate of degradation was determined by multiplying 100 with rate constant (τ = 0.693/t1/2).

[3] = target: T2, VBC / SMARCA2^BD ternary complex (Homo sapiens, UniProt P40337+P51531); assay: SPR ternary complex binding, VBC surface with preformed PROTAC/SMARCA2 bromodomain complex; conditions: for Kd: SPR, VHL, PROTAC, error SEM, N = 3, read-out: KLPT (ternary complex binding affinity)
T2 construct: VHL (54-213), ElonginB (17-112) ElonginC (1-104); SMARCA2^BD 1373–1511 ∆1400–1417; His6 (N, cleaved yes); made in house
Procedure: (§1) SPR experiments were performed on a Biacore 8 K or T200 instrument (Cytiva). […] The running buffer during immobilization was PBS with 0.005% P20. Either high-density (3000-4000 RU) or low-density (300-400 RU) VBC-functionalized surfaces were created, followed by equilibration in the running buffer for 3 h.
PROTACs (10 mM in 100% DMSO) were initially prepared at 200 nM in a running buffer (20 mM Tris pH 8.0, 250 mM NaCl, 1 mM TCEP, 0.01% P20, 0.2 mg/ml BSA) with a concentration of 2% DMSO. This solution was mixed at 1:1 ratio with a solution of 5 μM of the SMARCA2 or BRD4 bromodomain protein in the running buffer. This complex was then serially diluted in the running buffer containing 2.5 μM SMARCA2 or BRD4 and 2% DMSO (5-point five-fold serial dilution). For ternary experiments, solutions were injected sequentially in single-cycle kinetic format without regeneration (contact time 60 s, flow rate 80 μL/min, dissociation time 300 s) using a stabilization period of 60 s and syringe wash (50% DMSO) between injections onto a low-density VBC-functionalized surface.
(§2) Raw sensorgrams were processed by performing double reference subtraction, solvent correction, and analysis was done using Biacore Insight Evaluation Software. Kinetic analysis was performed by fitting data to a 1:1 Langmuir interaction model and a steady-state affinity model was used to evaluate equilibrium binding affinity.

[4] = target: T3, VHL/EloB/EloC (VBC) (Homo sapiens, UniProt P40337); assay: SPR binary binding of PROTAC to VBC-functionalized surface; conditions: SPR; error SEM, N = 3; read-out: KLP (binary binding affinity between E3 ligase VHL and PROTAC)
T3 construct: VHL (54-213), ElonginB (17-112) ElonginC (1-104); made in house
Procedure: as §1
PROTACs (10 mM stocks in 100% DMSO) were diluted to 400 nM in a running buffer (20 mM Tris pH 7.5, 200 mM NaCl, 0.02% P20). This stock solution was then serially diluted in the running buffer containing final 2% DMSO. […] For SMARCA2 analysis, biotinylated proteins were introduced on a Series S streptavidin (SA) sensor chip at high-density (3000-4000 RU).
as §2

T2 sequence (P40337 54-213): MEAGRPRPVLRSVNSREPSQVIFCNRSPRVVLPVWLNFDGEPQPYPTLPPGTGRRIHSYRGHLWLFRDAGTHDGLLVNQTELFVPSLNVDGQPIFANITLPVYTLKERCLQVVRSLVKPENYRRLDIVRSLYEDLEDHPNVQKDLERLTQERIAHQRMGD
T2 sequence (P51531 other isoform, or with tags, fused parts or gaps): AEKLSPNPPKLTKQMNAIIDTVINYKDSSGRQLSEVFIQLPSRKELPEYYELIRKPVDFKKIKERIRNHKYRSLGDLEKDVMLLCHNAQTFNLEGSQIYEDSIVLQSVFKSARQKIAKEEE
T2 sequence (Q15370 1-104, further chain): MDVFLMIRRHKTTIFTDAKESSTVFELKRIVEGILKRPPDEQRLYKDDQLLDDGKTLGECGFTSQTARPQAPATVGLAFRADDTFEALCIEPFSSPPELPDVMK
T2 sequence (Q15369 17-112, further chain): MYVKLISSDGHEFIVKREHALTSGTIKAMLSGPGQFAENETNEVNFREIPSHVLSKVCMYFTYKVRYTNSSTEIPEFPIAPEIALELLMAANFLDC
T1 sequence (P51531 whole entry): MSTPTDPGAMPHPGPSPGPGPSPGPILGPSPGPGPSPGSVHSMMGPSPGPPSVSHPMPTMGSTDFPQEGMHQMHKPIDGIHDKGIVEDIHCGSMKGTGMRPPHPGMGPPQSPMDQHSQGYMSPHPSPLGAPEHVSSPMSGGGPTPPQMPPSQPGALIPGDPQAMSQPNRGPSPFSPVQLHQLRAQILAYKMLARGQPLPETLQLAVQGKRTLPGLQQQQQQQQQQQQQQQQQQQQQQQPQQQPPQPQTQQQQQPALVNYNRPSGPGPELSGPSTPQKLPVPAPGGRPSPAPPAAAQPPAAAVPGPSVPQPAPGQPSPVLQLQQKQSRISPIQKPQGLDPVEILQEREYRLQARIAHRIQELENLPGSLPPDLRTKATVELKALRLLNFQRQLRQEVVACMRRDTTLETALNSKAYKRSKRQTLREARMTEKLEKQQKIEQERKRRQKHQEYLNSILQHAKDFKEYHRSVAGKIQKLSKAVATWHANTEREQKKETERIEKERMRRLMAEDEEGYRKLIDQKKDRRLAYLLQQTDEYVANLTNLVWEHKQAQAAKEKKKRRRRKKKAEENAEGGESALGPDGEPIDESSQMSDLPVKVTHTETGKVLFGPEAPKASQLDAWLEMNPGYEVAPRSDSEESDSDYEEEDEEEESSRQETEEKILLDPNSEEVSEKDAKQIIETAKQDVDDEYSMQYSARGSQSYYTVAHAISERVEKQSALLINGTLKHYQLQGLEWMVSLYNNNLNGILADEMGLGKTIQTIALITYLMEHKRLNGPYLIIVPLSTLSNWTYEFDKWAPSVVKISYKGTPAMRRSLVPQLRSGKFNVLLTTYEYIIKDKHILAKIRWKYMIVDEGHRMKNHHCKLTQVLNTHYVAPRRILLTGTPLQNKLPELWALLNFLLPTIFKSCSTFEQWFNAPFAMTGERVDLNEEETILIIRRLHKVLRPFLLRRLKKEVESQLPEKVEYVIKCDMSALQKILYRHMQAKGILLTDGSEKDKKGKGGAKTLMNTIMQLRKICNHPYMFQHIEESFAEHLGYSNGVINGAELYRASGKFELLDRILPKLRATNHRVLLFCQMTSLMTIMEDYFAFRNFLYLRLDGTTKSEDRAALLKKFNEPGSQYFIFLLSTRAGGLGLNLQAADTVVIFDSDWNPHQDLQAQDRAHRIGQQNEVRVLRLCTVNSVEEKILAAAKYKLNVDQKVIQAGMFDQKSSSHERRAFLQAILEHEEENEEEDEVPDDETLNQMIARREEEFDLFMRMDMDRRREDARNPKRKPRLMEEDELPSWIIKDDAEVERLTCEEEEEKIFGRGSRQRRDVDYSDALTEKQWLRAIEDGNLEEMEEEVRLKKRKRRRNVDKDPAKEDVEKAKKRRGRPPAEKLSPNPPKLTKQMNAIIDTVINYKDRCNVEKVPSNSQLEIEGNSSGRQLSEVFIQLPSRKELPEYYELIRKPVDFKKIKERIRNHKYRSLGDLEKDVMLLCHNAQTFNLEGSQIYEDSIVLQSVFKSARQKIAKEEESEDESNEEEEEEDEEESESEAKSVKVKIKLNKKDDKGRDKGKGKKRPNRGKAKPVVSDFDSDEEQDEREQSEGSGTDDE
T3 sequence (Q15369 17-112): as the sequence (Q15369 17-112, further chain) above
T3 sequence (Q15370 1-104, further chain): as the sequence (Q15370 1-104, further chain) above
T3 sequence (P40337 54-213): as the sequence (P40337 54-213) above

Dmax [1] [%]	AUC (area under the dose-response curve) [1]	DC50 [1] [nM]	Initial Degradation Rate [2] [%/min]	α (cooperativity, KLP/KLPT) [3]	Kd [3] [nM]	Kd [4] [nM]	Compound
53	119	221	0.25	0.55	108 ± 14	59 ± 5	Cc1ncsc1-c1ccc(CNC(=O)C2C[C@@H](O)CN2C(=O)C(NC(=O)C2(F)CC2)C(C)(C)C)c(OCCc2ccc(CN3CCN(c4cc(-c5ccccc5O)nnc4N)CC3)cc2)c1 (stereo in doubt) [Compound 11, (2R,4R)-N-(2-(4-((4-(3-amino-6-(2-hydroxyphenyl)pyridazin-4-yl)piperazin-1-yl)methyl)phenethoxy)-4-(4-methylthiazol-5-yl)benzyl)-1-((R)-2-(1-fluorocyclopropane-1-carboxamido)-3,3-dimethylbutanoyl)-4-hydroxypyrrolidine-2-carboxamide, reference compound]
98	13	28	1.9	12.8	4.7 ± 1	60 ± 3	Cc1ncsc1-c1ccc([C@H](C)NC(=O)[C@@H]2C[C@@H](O)CN2C(=O)[C@@H](NC(=O)c2ccnc(N3CCN(c4cc(-c5ccccc5O)nnc4N)CC3)c2)C(C)(C)C)cc1 [Compound 1, 2-(4-(3-Amino-6-(2-hydroxyphenyl)pyridazin-4-yl)piperazin-1-yl)-N-((S)-1-((2S,4R)-4-hydroxy-2-(((S)-1-(4-(4-methylthiazol-5-yl)phenyl)ethyl)carbamoyl)pyrrolidin-1-yl)-3,3-dimethyl-1-oxobutan-2-yl)isonicotinamide]
95	28	95	2.02	6.5	33 ± 4	210 ± 18	Cc1ncsc1-c1ccc([C@H](C)NC(=O)[C@@H]2C[C@@H](O)CN2C(=O)[C@@H](NC(=O)c2cccc(N3CCN(c4cc(-c5ccccc5O)nnc4N)CC3)n2)C(C)(C)C)cc1 [Compound 2, 6-(4-(3-Amino-6-(2-hydroxyphenyl)pyridazin-4-yl)piperazin-1-yl)-N-((S)-1-((2S,4R)-4-hydroxy-2-(((S)-1-(4-(4-methylthiazol-5-yl)phenyl)ethyl)carbamoyl)pyrrolidin-1-yl)-3,3-dimethyl-1-oxobutan-2-yl)picolinamide]
96	26	99	2.06	2.6	64 ± 7	166 ± 15	Cc1ncsc1-c1ccc([C@H](C)NC(=O)[C@@H]2C[C@@H](O)CN2C(=O)[C@@H](NC(=O)c2cccc(N3CCN(c4cc(-c5ccccc5O)nnc4N)CC3)c2)C(C)(C)C)cc1 [Compound 4, (2S,4R)-1-((S)-2-(3-(4-(3-Amino-6-(2-hydroxyphenyl)pyridazin-4-yl)piperazin-1-yl)benzamido)-3,3-dimethylbutanoyl)-4-hydroxy-N-((S)-1-(4-(4-methylthiazol-5-yl)phenyl)ethyl)pyrrolidine-2-carboxamide]
96	28	112	1.9	1.8	46.8 ± 6.7	84.7 ± 5	Cc1ncsc1-c1ccc([C@H](C)NC(=O)[C@@H]2C[C@@H](O)CN2C(=O)[C@@H](NC(=O)c2csc(N3CCN(c4cc(-c5ccccc5O)nnc4N)CC3)n2)C(C)(C)C)cc1 [Compound 5, 2-(4-(3-Amino-6-(2-hydroxyphenyl)pyridazin-4-yl)piperazin-1-yl)-N-((S)-1-((2S,4R)-4-hydroxy-2-(((S)-1-(4-(4-methylthiazol-5-yl)phenyl)ethyl)carbamoyl)pyrrolidin-1-yl)-3,3-dimethyl-1-oxobutan-2-yl)thiazole-4-carboxamide]
96	26	85	3.5	2	5.6 ± 2	11 ± 1	Cc1ncsc1-c1ccc([C@H](C)NC(=O)[C@@H]2C[C@@H](O)CN2C(=O)[C@@H](NC(=O)CN2CCN(c3cc(-c4ccccc4O)nnc3N)CC2)C(C)(C)C)cc1 [Compound 6, (2S,4R)-1-((S)-2-(2-(4-(3-Amino-6-(2-hydroxyphenyl)pyridazin-4-yl)piperazin-1-yl)acetamido)-3,3-dimethylbutanoyl)-4-hydroxy-N-((S)-1-(4-(4-methylthiazol-5-yl)phenyl)ethyl)pyrrolidine-2-carboxamide, reference compound]
55	122	850	0.78	0.11	80 ± 6	9 ± 2	Cc1ncsc1-c1ccc([C@H](C)NC(=O)[C@@H]2C[C@@H](O)CN2C(=O)[C@@H](NC(=O)Cc2ccnc(N3CCN(c4cc(-c5ccccc5O)nnc4N)CC3)c2)C(C)(C)C)cc1 [Compound 7, (2S,4R)-1-((S)-2-(2-(2-(4-(3-Amino-6-(2-hydroxyphenyl)pyridazin-4-yl)piperazin-1-yl)pyridin-4-yl)acetamido)-3,3-dimethylbutanoyl)-4-hydroxy-N-((S)-1-(4-(4-methylthiazol-5-yl)phenyl)ethyl)pyrrolidine-2-carboxamide]
